We go through 1 molecule from paper PMC5827777, “Synthesis and biological evaluation of RGD and isoDGR peptidomimetic-α-amanitin conjugates for tumor-targeting” (Beilstein Journal of Organic Chemistry, 2018).

Assay [1] deals with MDA-MB-468 cells (breast adenocarcinoma, αVβ3−). Kind of assay: cells. It is filed as cell-based. Conditions: 96 hours treatment; triplicate; read-out: IC50 MDA-MB-468 (αVβ3−), inhibition of cell viability. On the procedure:
(§1) The cell lines were treated with different concentrations of the free drug α-amanitin and conjugates 7–11 for 96 hours. […]
(§2) described recently.[S1] The SNP profiles matched known profiles or were unique. The purity of the cell lines was validated using the Multiplex cell Contamination Test by Multiplexion (Heidelberg, Germany) as described recently.[S2] No mycoplasma, SMRV or interspecies contamination was detected. U87-MG, MDA-MB 468 and A549 cells were cultivated continuously for not more than 3 months in MEM Eagle´s, DMEM or Ham´s F12 medium, respectively, supplemented with 10% heat inactivated fetus calf serum, L-glutamine and antibiotics. Cell lines were maintained at 37 °C and 5% CO2 in a high humidity atmosphere.
(§3) Cell therapy and viability assay
(§4) Cell viability assays were performed in U87-MG, A549 and MDA-MB 468 cell lines according to the following procedure: 2 × 10^3 cells/well were plated in 96-well black clear bottom plates (Perkin Elmer) and incubated overnight. 1:5 serial dilutions of compounds 7–11 were prepared in cell culture media. The compounds were added to the cell culture and incubated for additional 96 h. Starting concentration of compounds 7–11 in the wells was 1 × 10−5 M and cell viability was determined with the CellTiterGlo 2.0 assay (Promega) in accordance to manufacturer’s instructions. The cell viability was calculated in relation to the non-treated controls for each cell line. All samples were measured in triplicate. Data analysis was carried out using software GraphPad Prism (GraphPad Software Inc., La Jolla, CA, USA). […]
[S1] F. Castro, W. G. Dirks, S. Fähnrich, A. Hotz-Wagenblatt, M. Pawlita, M. Schmitt, Int. J. Cancer […]
[S2] M. Schmitt, M. Pawlita, Nucleic Acids Res. 2009, 37, e119.

Assay [2] relates to A549 cells (human lung carcinoma, αVβ3−). Kind of assay: cells. It is filed as cell-based. As to conditions: 96 hours treatment; triplicate; read-out: IC50 A549 (αVβ3−), inhibition of cell viability. How it is done: as §1, §2, §3, §4
In assay [3] the test system is MDA-MB-468 (αVβ3−, αVβ5+, αVβ6+, α5β1−). Conditions: read-out: IC50 MDA-MB-468, inhibition of cell viability, 96 hours.
Source text: (§5) However, it should be noted that these cell lines overexpress other integrins (α5β1 in U87, αVβ6 in MDA-MB-468, and αVβ5 in both). […]
(§6) described recently.[S1] […] The purity of […]
(§7) the cell lines was validated using the Multiplex cell Contamination Test by Multiplexion (Heidelberg, Germany) as described recently.[S2]
(§8) U87-MG, MDA-MB 468 and A549 cells were cultivated continuously for not more than 3 months in MEM Eagle´s, DMEM or Ham´s F12 medium, respectively, supplemented with 10% heat inactivated fetus calf serum, L-glutamine and antibiotics. Cell lines were maintained at 37 °C and 5% CO2 in a high humidity atmosphere.
as §3
(§9) Cell viability assays were performed in U87-MG, A549 and MDA-MB 468 cell lines according to the following procedure: 2 × 10^3 cells/well were plated in 96-well black clear bottom plates (Perkin Elmer) and incubated overnight. […]
(§10) in cell culture media. The compounds were added to the cell culture and incubated for additional […]
(§11) was determined with the CellTiterGlo 2.0 assay (Promega) in accordance to manufacturer’s instructions. The cell viability was calculated in relation to the non-treated controls for each cell line. All samples were measured in triplicate.
(§12) All samples were measured in triplicate.

Assay [4] deals with U87 (αVβ3+, αVβ5+, αVβ6−, α5β1+). Conditions: read-out: IC50 U87, inhibition of cell viability, 96 hours.
Source text: as §5, §6, §7, §8, §3, §9, §10, §11, §12

[5] abbreviates: + 50-fold excess of cilengitide.

Like-named read-outs stand apart in the source and are kept apart here.

A word on the IC50: it is the point on the concentration scale where inhibition reaches its midpoint. As to `CC[C@H](C)[C@@H]1NC(=O)CNC(=O)[C@@H]2Cc3c([nH]c4cc(OCc5ccc(NC(=O)[C@H](C)NC(=O)[C@@H](NC(=O)CCCC(=O)NCc6ccc(CN7C(=O)[C@H]8CC(=O)N[C@H](C(=O)O)CC(=O)NCC(=O)N[C@@H](CCCNC(=N)N)C(=O)NC[C@H]7C(=O)N8)cc6)C(C)C)cc5)ccc34)[S@+]([O-])C[C@H](NC(=O)CNC1=O)C(=O)N[C@@H](CC(N)=O)C(=O)N1C[C@H](O)C[C@H]1C(=O)N[C@@H]([C@@H](C)[C@@H](O)CO)C(=O)N2` [Compound 10, cyclo[DKP-isoDGR]-Val-Ala-α-amanitin], the IC50 is 59 ± 23.4 nM in assay [1]; 217 ± 98.3 nM in assay [2]; 259 ± 55.2 nM in assay [3] (setting [5]); 47 ± 21.1 nM in assay [3] (without cilengitide); 106 ± 11.6 nM in assay [4] (setting [5]); 107 ± 26.8 nM in assay [4] (without cilengitide).
